Among the test systems are Candida albicans SC5314; Candida krusei ATCC 6258; Listeria ivanovii; Bacillus subtilis 168; Escherichia coli B; Pseudomonas aeruginosa; Staphylococcus aureus 1; Staphylococcus aureus; Escherichia coli K88; Escherichia coli UB1005; Staphylococcus xylosus.
Common to all, as to assay: ≥ marks a high value that may be exact or a test limit, other limits are often not marked, values filed in µg/mL are converted to µM
The subject of test [1] is Candida glabrata ATCC 15126.
Test [2] has as its system Candida parapsilosis ATCC 22019.
In test [3] the test system is Candida tropicalis ATCC 13803.
Test [4] deals with Acinetobacter baumannii ATCC 19606.
Test [5] concerns Candida albicans ATCC 90028.
In test [6] the test system is Enterococcus faecalis ATCC 29212.
Test [7] deals with Escherichia coli ATCC 25922.
For test [8], the system named is Klebsiella pneumoniae ATCC 13883.
The subject of test [9] is Pseudomonas aeruginosa ATCC 27853.
Test [10] relates to Staphylococcus aureus ATCC 25923.
Test [11] has as its system Staphylococcus aureus ATCC BAA-44.
The test system of test [12] is Candida albicans F7-39/IDE99.
Test [13] concerns Micrococcus luteus CCM 144.
For test [14], the system named is Staphylococcus aureus ATCC 43300.
Test [15] has as its system Staphylococcus epidermidis.
Test [16] concerns Enterococcus faecium ATCC 700221.
Test [17] has as its system Klebsiella pneumoniae ATCC 700603.
Test [18] relates to Staphylococcus epidermidis ATCC 35984.
The test system of test [19] is Escherichia coli CVCC 245.
Test [20] concerns Listeria monocytogenes CVCC 1599.
Test [21] relates to Micrococcus luteus CVCC 28001.
The test system of test [22] is Staphylococcus aureus CMCC 26003.
The test system of test [23] is Bacillus subtilis CMCC 63501.
Test [24] deals with Pseudomonas aeruginosa PAO1.
The subject of test [25] is Salmonella enterica subsp. enterica serovar Pullorum C79-13.
In test [26] the test system is Salmonella enterica subsp. enterica serovar Typhimurium ATCC 14028.
Test [27] concerns Salmonella enterica subsp. enterica serovar Typhimurium C77-31.
Test [28] concerns Salmonella typhimurium ATCC 7731.
The subject of test [29] is Staphylococcus aureus ATCC 29213.
Test [30] concerns Staphylococcus epidermidis ATCC 12228.
Test [31] deals with Escherichia coli DH5alpha.

Converted amounts (≈) assume the structure as drawn. “And” between values parts separate entries of the source, which are not always exact repeats. Equal values may be shown once. A value given as a limit tells only on which side of the number the result lay.

One may read the MIC as the least concentration at which growth counts as inhibited. Lower therefore signals a more susceptible organism.

For `CC(C)C[C@H](NC(=O)[C@H](CC(C)C)NC(=O)[C@H](Cc1ccc(O)cc1)NC(=O)[C@H](CCCCN)NC(=O)[C@@H](N)CS)C(=O)N[C@@H](CCCN=C(N)N)C(=O)N[C@@H](Cc1c[nH]c2ccccc12)C(=O)N[C@@H](CCCN=C(N)N)C(=O)O` [CKYLLRWR], the minimal inhibitory concentration (MIC) against Candida albicans SC5314 was at least 87.9 µM; in [1], 22 µM (≈ 25 µg/mL); against Candida krusei ATCC 6258 it was at least 44 µM; in test [2] it was at least 87.9 µM; in [3], at least 44 µM.

On to `CC(C)C[C@H](NC(=O)[C@H](CCCN=C(N)N)NC(=O)CNC(=O)[C@H](Cc1ccccc1)NC(=O)[C@@H](N)Cc1ccccc1)C(=O)N[C@@H](CCCCN)C(=O)N[C@@H](CO)C(=O)N[C@H](C(=O)N[C@@H](Cc1c[nH]c2ccccc12)C(=O)N[C@@H](CO)C(=O)N[C@@H](C)C(=O)N[C@H](C(=O)N[C@@H](CCCCN)C(=O)N[C@@H](Cc1cnc[nH]1)C(=O)NCC(=O)N[C@@H](Cc1c[nH]c2ccccc12)C(=O)N[C@@H](CCCCN)C(=O)N[C@@H](C)C(=O)N[C@@H](C)C(=O)N[C@@H](CCCCN)C(=O)N[C@@H](CO)C(=O)N[C@@H](CCCN=C(N)N)C(=O)O)C(C)C)C(C)C` [FFGRLKSVWSAVKHGWKAAKSR], for which the minimum inhibitory concentration (MIC) was 3 µM (≈ 7.64 µg/mL) in [4]; 25 µM (≈ 63.7 µg/mL) in test [5]; at least 50 µM in [2]; 12.5 µM (≈ 31.8 µg/mL) in test [6]; 4.24 µM (≈ 10.8 µg/mL) in [7]; 6 µM (≈ 15.3 µg/mL) in [8]. The MIC is 3 µM (≈ 7.64 µg/mL) with Listeria ivanovii, 6 µM (≈ 15.3 µg/mL) in test [9], 3 µM (≈ 7.64 µg/mL) in [10] and 3 µM (≈ 7.64 µg/mL) in test [11].

For `CC[C@H](C)[C@H](NC(=O)CN)C(=O)N[C@@H](CCSC)C(=O)N[C@H](C(=O)N[C@@H](CO)C(=O)N[C@@H](CC(C)C)C(=O)N[C@@H](CCSC)C(=O)N[C@@H](CCCCN)C(=O)N[C@@H](CCCCN)C(=O)N[C@@H](CC(C)C)C(=O)N[C@@H](C)C(=O)N[C@@H](C)C(=O)N[C@@H](Cc1cnc[nH]1)C(=O)N[C@H](C(=O)N[C@@H](C)C(=O)N[C@@H](CCCCN)C(N)=O)[C@@H](C)CC)[C@@H](C)CC` [GIMISLMKKLAAHIAK], the MIC against Bacillus subtilis 168 was 7 µM (≈ 12.1 µg/mL); in test [12], 12 µM (≈ 20.7 µg/mL); against Escherichia coli B, 12 µM (≈ 20.7 µg/mL); in test [13] it was 3 µM (≈ 5.17 µg/mL); in test [9], 47 µM (≈ 81 µg/mL); in the test with Pseudomonas aeruginosa, over 100 µM. Besides, the minimum inhibitory concentration (MIC) is at least 35 µM against Staphylococcus aureus 1, 43 µM (≈ 74.1 µg/mL) in test [14], 65 µM (≈ 112 µg/mL) in the test with Staphylococcus aureus and 8.8 µM (≈ 15.2 µg/mL) in test [15].

For `CC(C)C[C@H](NC(=O)[C@H](Cc1cnc[nH]1)NC(=O)[C@H](Cc1ccc(O)cc1)NC(=O)[C@H](CCCN=C(N)N)NC(=O)[C@H](Cc1ccc(O)cc1)NC(=O)[C@H](CCCCN)NC(=O)[C@@H](N)CCCCN)C(=O)N[C@@H](CCCCN)C(=O)N1CCC[C@H]1C(=O)N[C@@H](Cc1ccccc1)C(=O)N[C@@H](CS)C(=O)N[C@@H](CCCCN)C(=O)N[C@@H](CCCCN)C(=O)O` [KKYRYHLKPFCKK], the MIC is over 294 µM in test [4]; 294 µM (≈ 512 µg/mL) in test [6]; at least 147 µM in test [16]; 147 µM (≈ 256 µg/mL) in test [7]; over 294 µM in [17]; over 294 µM in test [9]. Further, the minimal inhibitory concentration (MIC) in test [10] was 294 µM (≈ 512 µg/mL); in test [18], at least 73.6 µM.

Take `CC[C@H](C)[C@H](NC(=O)[C@H](CCCCN)NC(=O)[C@H](CCCCN)NC(=O)[C@H](Cc1ccccc1)NC(=O)[C@H](CC(C)C)NC(=O)[C@H](CCCCN)NC(=O)[C@H](Cc1c[nH]c2ccccc12)NC(=O)[C@@H](N)CCCCN)C(=O)N[C@@H](Cc1ccccc1)C(=O)N[C@@H](CCCCN)C(=O)N[C@@H](CCCN=C(N)N)C(=O)N[C@H](C(=O)N[C@H](C(=O)N[C@@H](CCC(N)=O)C(=O)N[C@@H](CCCN=C(N)N)C(=O)N[C@H](C(=O)N[C@@H](CCCCN)C(=O)N[C@@H](CC(=O)O)C(=O)N[C@@H](Cc1ccccc1)C(=O)N[C@@H](CC(C)C)C(=O)N[C@@H](CCCN=C(N)N)C(=O)N[C@@H](CC(N)=O)C(=O)O)[C@@H](C)CC)C(C)C)[C@@H](C)CC` [KWKLFKKIFKRIVQRIKDFLRN]: the minimum inhibitory concentration (MIC) in [19] stood at 2.41 µM (≈ 7 µg/mL); against Escherichia coli K88, 2.75 µM (≈ 8 µg/mL); in test [20] it was 0.688 µM (≈ 2 µg/mL); in [21] it was 5.51 µM (≈ 16 µg/mL); in test [10] it was 0.688 µM (≈ 2 µg/mL); in test [22], 2.41 µM (≈ 7 µg/mL).

Turning to `CC[C@H](C)[C@H](NC(=O)[C@H](CCCCN)NC(=O)[C@H](CCCCN)NC(=O)[C@H](Cc1ccccc1)NC(=O)[C@H](CC(C)C)NC(=O)[C@H](CCCCN)NC(=O)[C@H](Cc1c[nH]c2ccccc12)NC(=O)[C@@H](N)CCCCN)C(=O)O` [KWKLFKKI], the MIC in [23] is at least 64 µM; in test [6] it was > 64 µM and 128 µM; in test [7], 64 µM and 128 µM; with Escherichia coli UB1005, at least 128 µM; in [9], > 64 µM and 128 µM; in test [24], over 64 µM. Further, the MIC in test [25] is at least 128 µM; in [26] it was > 64 µM and 128 µM; in test [27], at least 128 µM; in [28] it was at least 64 µM; in [29] it was > 64 µM and 128 µM; in test [30], > 64 µM and 128 µM.

Take `NC(N)=NCCC[C@H](NC(=O)[C@H](CCCN=C(N)N)NC(=O)[C@H](CCCN=C(N)N)NC(=O)[C@H](Cc1ccccc1)NC(=O)[C@H](Cc1ccccc1)NC(=O)[C@H](Cc1ccccc1)NC(=O)[C@H](Cc1ccccc1)NC(=O)[C@H](Cc1ccccc1)NC(=O)[C@H](CCCN=C(N)N)NC(=O)[C@H](CCCN=C(N)N)NC(=O)[C@@H](N)CCCN=C(N)N)C(=O)O` [RRRFFFFFRRR]: the values for the minimum inhibitory concentration (MIC) (in test [31]; against Staphylococcus xylosus) were 4 µM (≈ 6.76 µg/mL) and 0.5 µM (≈ 0.846 µg/mL), respectively.

Source of the values: DBAASP.
